Results taken from patent US20120171126A1, “NOVEL [3,2-c] HETEROARYL STEROIDS AS GLUCOCORTICOID RECEPTOR AGONISTS COMPOSITIONS AND USES THEREOF” (priority 2009, published 2012).
Like-named read-outs stand apart in the source and are kept apart here.

System: IL-8
Experiment: Glucocorticoid transrepression assay, IL-8 inhibition (TR)
Format: cell-based
Conditions: Homo sapiens, NCl-H292 cells, TNFα 10 ng/ml; for Emax: read-out: IL-8 inhibition (TR) Emax % inhibition
Protocol: Human Lung epithelial cell line NCl-H292 cells were dissociated from stock flask using 0.05% trypsin/0.53 mM EDTA. Cells were suspended in complete medium and counted. Cells were plated in 96-well flat-bottom plates at 20K cells /well in 0.2 ml/well. Plates were incubated for 24-48 hours until cells were between 75-90% confluent. Medium was aspirated and replaced with medium containing various concentrations of steroids or antagonists. After 1 hour incubation at 37°, TNFα (10 ng/ml final concentration in 0.2 ml) was added and the cells incubated overnight. Control wells with and without TNF were included on each plate, as well as wells with TNF in addition to a maximum (10 μM) concentration of dexamethasone. The cell culture medium was sampled and IL-6 and IL-8 cytokine production was measured using the MSD Multi-Spot immunoassay.

For `CC12Cc3cnn(-c4ccc(F)cc4)c3C=C1CCC1C2[C@@H](O)CC2(C)C1CC[C@]2(O)C(=O)Cn1cc(-c2cccnc2)nn1` (stereo partly shown) [Compound 1], the IC50 (Table 6) was 0.06 to 20 nM and the Emax (Table 6) was > 80%.

In the case of `CC12Cc3cnn(-c4ccc(F)cc4)c3C=C1CCC1C2[C@@H](O)CC2(C)C1CC[C@]2(O)C(=O)Nc1nc2cccnc2s1` (stereo partly shown) [Compound 1], the IC50 (Table 2) is reported as 0.06 to 20 nM and the Emax (Table 2) is reported as > 80%.

For `C[C@]12Cc3cnn(-c4ccc(F)cc4)c3C=C1CCC1C2[C@@H](O)C[C@@]2(C)C1CC[C@]2(O)C(=O)CN1CCN(c2nc3ccccc3o2)CC1` (stereo partly shown) [Compound 1], the IC50 (Table 5) was 0.06 to 20 nM and the Emax (Table 5) was > 80%.

In the case of `C[C@]12Cc3cnoc3C=C1CCC1C2[C@@H](O)C[C@@]2(C)C1CC[C@]2(O)C(=O)CSc1nc2ccccc2o1` (stereo partly shown) [Compound 1], the Emax (Table 3) is reported as < 60%.

`C#CCN1CCN(CC(=O)[C@@]2(O)CCC3C4CCC5=Cc6c(cnn6-c6ccc(F)cc6)C[C@]5(C)C4[C@@H](O)C[C@@]32C)CC1` (stereo partly shown) [Compound 2] was tested, and the Emax (Table 5) was < 60%.

In the case of `CC12Cc3cnn(-c4ccc(F)cc4)c3C=C1CCC1C2[C@@H](O)CC2(C)C1CC[C@]2(O)C(=O)Cn1cc(Cc2ccccc2)nn1` (stereo partly shown) [Compound 2], the IC50 (Table 6) is reported as 0.06 to 20 nM and the Emax (Table 6) is reported as > 80%.

`CC12Cc3cnn(-c4ccc(F)cc4)c3C=C1CCC1C2[C@@H](O)CC2(C)C1CC[C@]2(O)C(=O)Nc1nc2ccccc2s1` (stereo partly shown) [Compound 2] was tested, and the IC50 (Table 2) was 0.06 to 20 nM and the Emax (Table 2) was > 80%.

`C[C@]12Cc3cnoc3C=C1CCC1C2[C@@H](O)C[C@@]2(C)C1CC[C@]2(O)C(=O)CSc1cnc2ccccc2n1` (stereo partly shown) [Compound 2] was tested, and the Emax (Table 3) was < 60%.

With `Cn1c(SCC(=O)[C@@]2(O)CCC3C4CCC5=Cc6c(cnn6-c6ccc(F)cc6)CC5(C)C4[C@@H](O)CC32C)nc2ccccc21` (stereo partly shown) [Compound 2] the IC50 (Table 1) was 0.06 to 20 nM and the Emax (Table 1) was > 80%.

`CC12Cc3cnn(-c4ccc(F)cc4)c3C=C1CCC1C2[C@@H](O)CC2(C)C1CC[C@]2(O)C(=O)NCc1ccccc1` (stereo partly shown) [Compound 3] was tested, and the IC50 (Table 2) was 0.06 to 20 nM and the Emax (Table 2) was > 80%.

For `CCOC(=O)c1cnn(CC(=O)[C@@]2(O)CCC3C4CCC5=Cc6c(cnn6-c6ccc(F)cc6)CC5(C)C4[C@@H](O)CC32C)c1` (stereo partly shown) [Compound 3], the IC50 (Table 7) was 0.06 to 20 nM and the Emax (Table 7) was > 80%.

For `C[C@]12Cc3cnn(-c4ccc(F)cc4)c3C=C1CCC1C2[C@@H](O)C[C@@]2(C)C1CC[C@]2(O)C(=O)CN1CCN(c2ccccn2)CC1` (stereo partly shown) [Compound 3], the IC50 (Table 5) was 0.06 to 20 nM and the Emax (Table 5) was > 80%.

`C[C@]12Cc3cnoc3C=C1CCC1C2[C@@H](O)C[C@@]2(C)C1CC[C@]2(O)C(=O)CSc1ccccn1` (stereo partly shown) [Compound 3] was tested, and the Emax (Table 3) was < 60%.

In the case of `C[C@]12Cc3cnn(-c4ccc(F)cc4)c3C=C1CCC1C2[C@@H](O)C[C@@]2(C)C1CC[C@]2(O)C(=O)CN1CCN(c2ncccn2)CC1` (stereo partly shown) [Compound 4], the IC50 (Table 5) is reported as 0.06 to 20 nM and the Emax (Table 5) is reported as > 80%.

With `C[C@]12Cc3cnn(-c4ccc(F)cc4)c3C=C1CCC1C2[C@@H](O)C[C@@]2(C)C1CC[C@]2(O)C(=O)NC1(c2ccccc2)CC1` (stereo partly shown) [Compound 4] the IC50 (Table 2) was 0.06 to 20 nM and the Emax (Table 2) was > 80%.

In the case of `C[C@]12Cc3cnoc3C=C1CCC1C2[C@@H](O)C[C@@]2(C)C1CC[C@]2(O)C(=O)CSc1ccc2ccccc2n1` (stereo partly shown) [Compound 4], the Emax (Table 3) is reported as < 60%.

In the case of `Cc1cnn(CC(=O)[C@@]2(O)CCC3C4CCC5=Cc6c(cnn6-c6ccc(F)cc6)CC5(C)C4[C@@H](O)CC32C)c1` (stereo partly shown) [Compound 4], the IC50 (Table 7) is reported as 0.06 to 20 nM and the Emax (Table 7) is reported as > 80%.

With `C#CCNC(=O)[C@@]1(O)CCC2C3CCC4=Cc5c(cnn5-c5ccc(F)cc5)C[C@]4(C)C3[C@@H](O)C[C@@]21C` (stereo partly shown) [Compound 5] the IC50 (Table 2) was 0.06 to 20 nM and the Emax (Table 2) was > 80%.

For `CC12Cc3cnn(-c4ccc(F)cc4)c3C=C1CCC1C2[C@@H](O)CC2(C)C1CC[C@]2(O)C(=O)CSc1ccccn1` (stereo partly shown) [Compound 5], the IC50 (Table 1) was 0.06 to 20 nM and the Emax (Table 1) was > 80%.

In the case of `C[C@]12Cc3cnn(-c4ccc(F)cc4)c3C=C1CCC1C2[C@@H](O)C[C@@]2(C)C1CC[C@]2(O)C(=O)CN1CCN(Cc2ccc(C(F)(F)F)cc2)CC1` (stereo partly shown) [Compound 5], the IC50 (Table 5) is reported as 0.06 to 20 nM and the Emax (Table 5) is reported as > 80%.

For `Cn1c(SCC(=O)[C@@]2(O)CCC3C4CCC5=Cc6oncc6C[C@]5(C)C4[C@@H](O)C[C@@]32C)nc2ccccc21` (stereo partly shown) [Compound 5], the IC50 (Table 3) was 401 to 1000 nM and the Emax (Table 3) was < 60%.

With `CC12Cc3cnn(-c4ccc(F)cc4)c3C=C1CCC1C2[C@@H](O)CC2(C)C1CC[C@]2(O)C(=O)CSc1cnc2ccccc2n1` (stereo partly shown) [Compound 6] the IC50 (Table 1) was 0.06 to 20 nM and the Emax (Table 1) was > 80%.

In the case of `C[C@@H](NC(=O)[C@@]1(O)CCC2C3CCC4=Cc5c(cnn5-c5ccc(F)cc5)C[C@]4(C)C3[C@@H](O)C[C@@]21C)c1ccccc1` (stereo partly shown) [Compound 6], the IC50 (Table 2) is reported as 0.06 to 20 nM and the Emax (Table 2) is reported as > 80%.

With `C[C@]12Cc3cnoc3C=C1CCC1C2[C@@H](O)C[C@@]2(C)C1CC[C@]2(O)C(=O)CSc1nc2ccccc2s1` (stereo partly shown) [Compound 6] the Emax (Table 3) was < 60%.

In the case of `CC12Cc3cnn(-c4ccc(F)cc4)c3C=C1CCC1C2[C@@H](O)CC2(C)C1CC[C@]2(O)C(=O)CSc1ncccn1` (stereo partly shown) [Compound 7], the IC50 (Table 1) is reported as 0.06 to 20 nM and the Emax (Table 1) is reported as > 80%.

`C[C@@H](NC(=O)[C@@]1(O)CCC2C3CCC4=Cc5c(cnn5-c5ccc(F)cc5)C[C@]4(C)C3[C@@H](O)C[C@@]21C)c1cccc2ccccc12` (stereo partly shown) [Compound 7] was tested, and the IC50 (Table 2) was 0.06 to 20 nM and the Emax (Table 2) was > 80%.

`C[C@]12Cc3cnn(-c4ccc(F)cc4)c3C=C1CCC1C2[C@@H](O)C[C@@]2(C)C1CC[C@]2(O)C(=O)NC1(c2ncc(F)cc2F)CC1` (stereo partly shown) [Compound 8] was tested, and the IC50 (Table 2) was 0.06 to 20 nM and the Emax (Table 2) was > 80%.

`CC12Cc3cnn(-c4ccc(F)cc4)c3C=C1CCC1C2[C@@H](O)CC2(C)C1CC[C@]2(O)C(=O)CC#N` (stereo partly shown) [Compound 9] was tested, and the IC50 (Table 1) was 0.06 to 20 nM and the Emax (Table 1) was > 80%.

In the case of `C[C@@H](NC(=O)[C@@]1(O)CCC2C3CCC4=Cc5c(cnn5-c5ccc(F)cc5)C[C@]4(C)C3[C@@H](O)C[C@@]21C)c1ccccn1` (stereo partly shown) [Compound 9], the IC50 (Table 2) is reported as 0.06 to 20 nM and the Emax (Table 2) is reported as > 80%.

In the case of `CC12Cc3cnn(-c4ccc(F)cc4)c3C=C1CCC1C2[C@@H](O)CC2(C)C1CC[C@]2(O)C(=O)CSc1nc2cccnc2s1` (stereo partly shown) [Compound 10], the IC50 (Table 1) is reported as 0.06 to 20 nM and the Emax (Table 1) is reported as > 80%.

With `C[C@]12Cc3cnn(-c4ccc(F)cc4)c3C=C1CCC1C2[C@@H](O)C[C@@]2(C)C1CC[C@]2(O)C(=O)NCc1ccc2nccn2c1` (stereo partly shown) [Compound 10] the IC50 (Table 2) was 0.06 to 20 nM and the Emax (Table 2) was > 80%.

In the case of `CC12Cc3cnn(-c4ccc(F)cc4)c3C=C1CCC1C2[C@@H](O)CC2(C)C1CC[C@]2(O)C(=O)CSc1nccc2ccccc12` (stereo partly shown) [Compound 11], the IC50 (Table 1) is reported as 0.06 to 20 nM and the Emax (Table 1) is reported as > 80%.

In the case of `C[C@]12Cc3cnn(-c4ccc(F)cc4)c3C=C1CCC1C2[C@@H](O)C[C@@]2(C)C1CC[C@]2(O)C(=O)NCCc1cnccn1` (stereo partly shown) [Compound 11], the IC50 (Table 2) is reported as 0.06 to 20 nM and the Emax (Table 2) is reported as > 80%.

With `C[C@]12Cc3cnn(-c4ccc(F)cc4)c3C=C1CCC1C2[C@@H](O)C[C@@]2(C)C1CC[C@]2(O)C(=O)NCCc1nc2ccccc2o1` (stereo partly shown) [Compound 12] the IC50 (Table 2) was 0.06 to 20 nM and the Emax (Table 2) was > 80%.

With `C[C@H](NC(=O)[C@@]1(O)CCC2C3CCC4=Cc5c(cnn5-c5ccc(F)cc5)C[C@]4(C)C3[C@@H](O)C[C@@]21C)c1ccccc1` (stereo partly shown) [Compound 13] the IC50 (Table 2) was 0.06 to 20 nM and the Emax (Table 2) was > 80%.

For `CC12Cc3cnn(-c4ccc(F)cc4)c3C=C1CCC1C2[C@@H](O)CC2(C)C1CC[C@]2(O)C(=O)NCc1cn(Cc2ccccc2)nn1` (stereo partly shown) [Compound 14], the IC50 (Table 2) was 0.06 to 20 nM and the Emax (Table 2) was > 80%.

With `Cn1c(SCC(=O)[C@@]2(O)CCC3C4CCC5=Cc6c(cnn6-c6ccccc6)CC5(C)C4[C@@H](O)CC32C)nc2ccccc21` (stereo partly shown) [Compound 14] the IC50 (Table 1) was 0.06 to 20 nM and the Emax (Table 1) was > 80%.

For `CC12Cc3cnn(-c4ccccc4)c3C=C1CCC1C2[C@@H](O)CC2(C)C1CC[C@]2(O)C(=O)CSc1ccc2ccccc2n1` (stereo partly shown) [Compound 15], the IC50 (Table 1) was 0.06 to 20 nM and the Emax (Table 1) was > 80%.
